Measured values from PubChem BioAssay (NCI).
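48-hour exposure; five concentrations; linearly interpolated endpoints. Abbreviation: GI50, concentration required for 50% inhibition of growth. TGI denotes the concentration required for complete inhibition of growth.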

What was measured:
Test in all cases: inhibition of tumour cell growth, NCI panel, 48 h
TK-10 renal = test system: TK-10 renal
MDA-MB-435 = test system: MDA-MB-435
HCT-15 colon = test system: HCT-15 colon
HCT-116 colon = test system: HCT-116 colon
SK-MEL-28 melanoma = test system: SK-MEL-28 melanoma
SK-OV-3 ovarian = test system: SK-OV-3 ovarian
A498 renal = test system: A498 renal
LOX IMVI melanoma = test system: LOX IMVI melanoma
OVCAR-3 ovarian = test system: OVCAR-3 ovarian
KM12 colon = test system: KM12 colon
RPMI-8226 leukemia = test system: RPMI-8226 leukemia
HOP-62 NSCLC = test system: HOP-62 NSCLC
PC-3 prostate = test system: PC-3 prostate
RXF 393 renal = test system: RXF 393 renal
A549 NSCLC = test system: A549 NSCLC
SW-620 colon = test system: SW-620 colon
SF-295 CNS = test system: SF-295 CNS
MCF7 breast = test system: MCF7 breast
IGROV1 ovarian = test system: IGROV1 ovarian
NCI/ADR-RES ovarian = test system: NCI/ADR-RES ovarian
K-562 leukemia = test system: K-562 leukemia
HT29 colon = test system: HT29 colon
NCI-H460 lung = test system: NCI-H460 lung
NCI-H23 lung = test system: NCI-H23 lung
M14 melanoma = test system: M14 melanoma
T-47D breast = test system: T-47D breast
OVCAR-5 ovarian = test system: OVCAR-5 ovarian
UACC-62 melanoma = test system: UACC-62 melanoma
OVCAR-4 ovarian = test system: OVCAR-4 ovarian

N#Cc1c[nH]n2c(N=Nc3ccc(Cl)cc3)c(O)nc12 gave a TGI (TK-10 renal) of 68.3 µM, a GI50 (MDA-MB-435) of 44.3 µM and a TGI (MDA-MB-435) of over 100 µM. For the same molecule, the GI50 (HCT-15 colon) was 22 µM, the TGI (HCT-15 colon) was 62.9 µM and the GI50 (HCT-116 colon) was 92.8 µM. It also gave a TGI (HCT-116 colon) of over 100 µM, a GI50 (SK-MEL-28 melanoma) of 44.4 µM and a TGI (SK-MEL-28 melanoma) of over 100 µM. It also gave a GI50 (SK-OV-3 ovarian) of 37 µM, a TGI (SK-OV-3 ovarian) of over 100 µM and a GI50 (A498 renal) of 44.2 µM. It also gave a TGI (A498 renal) of 96.3 µM, a GI50 (LOX IMVI melanoma) of 28.8 µM and a TGI (LOX IMVI melanoma) of over 100 µM. The GI50 (OVCAR-3 ovarian) was 40.3 µM, the TGI (OVCAR-3 ovarian) was over 100 µM and the GI50 (KM12 colon) was 29.4 µM. It also gave a TGI (KM12 colon) of over 100 µM, a GI50 (RPMI-8226 leukemia) of 25.7 µM and a TGI (RPMI-8226 leukemia) of 95.3 µM. It also gave a GI50 (HOP-62 NSCLC) of 62.7 µM, a TGI (HOP-62 NSCLC) of over 100 µM and a GI50 (PC-3 prostate) of 23.1 µM. It also gave a TGI (PC-3 prostate) of over 100 µM, a GI50 (RXF 393 renal) of 29.7 µM and a TGI (RXF 393 renal) of over 100 µM. The GI50 (A549 NSCLC) was 31.9 µM, the TGI (A549 NSCLC) was over 100 µM and the GI50 (SW-620 colon) was 47.9 µM. It also gave a TGI (SW-620 colon) of over 100 µM, a GI50 (SF-295 CNS) of 30.1 µM and a TGI (SF-295 CNS) of over 100 µM. It also gave a GI50 (MCF7 breast) of 21 µM, a TGI (MCF7 breast) of over 100 µM and a GI50 (IGROV1 ovarian) of 50.5 µM. For the same molecule, the TGI (IGROV1 ovarian) was over 100 µM, the GI50 (NCI/ADR-RES ovarian) was 25 µM and the TGI (NCI/ADR-RES ovarian) was 83.8 µM. It also gave a GI50 (K-562 leukemia) of 26.4 µM, a TGI (K-562 leukemia) of over 100 µM and a GI50 (HT29 colon) of 50.2 µM. The TGI (HT29 colon) was over 100 µM, the GI50 (NCI-H460 lung) was 29.1 µM and the TGI (NCI-H460 lung) was over 100 µM. For the same molecule, the GI50 (NCI-H23 lung) was 18 µM, the TGI (NCI-H23 lung) was 51.2 µM and the GI50 (M14 melanoma) was 77.3 µM. It also gave a TGI (M14 melanoma) of over 100 µM, a GI50 (T-47D breast) of 10.1 µM and a TGI (T-47D breast) of 56 µM. The GI50 (OVCAR-5 ovarian) was 84.9 µM, the TGI (OVCAR-5 ovarian) was over 100 µM and the GI50 (UACC-62 melanoma) was 17.2 µM. For the same molecule, the TGI (UACC-62 melanoma) was 57 µM, the GI50 (OVCAR-4 ovarian) was 57.3 µM and the TGI (OVCAR-4 ovarian) was over 100 µM.
